The values that follow come from patent publication US9249104B2, “Pyrazole indanyl carboxamides” (BAYER CROPSCIENCE AG, priority 2012, dated 2016).

Data set [1] relates to Puccinia recondita. Description: In vivo preventive test on Puccinia recondita (brown rust on wheat). The conditions noted are these: 500 ppm, wheat plants sprayed 24 h before contamination, graded 12 days after contamination. Here is the method: Wheat plants (“Scipion” variety), sown in starter cups on a 50/50 peat soil-pozzolana substrate and grown at 22° C., are treated at the 1-leaf stage (10 cm height) by spraying with the active ingredient prepared as described above. Plants, used as controls, are treated with the mixture of acetone/tween/DMSO/water not containing the active material. After 24 hours, the plants are contaminated by spraying the leaves with an aqueous suspension of Puccinia recondita spores (100 000 spores per ml). The spores are collected from an infected plant and are suspended in water to containing 2.5 ml/l of Tween 80 at 10%. […] Grading (% of efficacy) is carried out 12 days after the contamination, in comparison with the control plants.

Data set [2] has as its system Septoria tritici. Briefly: In vivo preventive test on Septoria tritici (leaf spot on wheat). The conditions noted are these: 500 ppm, wheat plants sprayed 24 h before contamination, graded 24 days after contamination. As to the method: Wheat plants (“Scipion” variety), sown in starter cups on a 50/50 peat soil-pozzolana substrate and grown at 22° C., are treated at the 1-leaf stage (10 cm height) by spraying with the active ingredient prepared as described above. Plants, used as controls, are treated with the mixture of acetone/tween/DMSO/water not containing the active material. After 24 hours, the plants are contaminated by spraying the leaves with an aqueous suspension of cryopreserved Septoria tritici spores (500 000 spores per ml). The contaminated wheat plants are incubated for 72 hours at 18° C. and at 100% relative humidity, and then for 21 days at 90% relative humidity. Grading (% of efficacy) is carried out 24 days after the contamination, in comparison with the control plants.

The subject of data set [3] is Sphaerotheca fuliginea. Briefly: In vivo preventive test on Sphaerotheca fuliginea (powdery mildew on cucurbits). The conditions noted are these: 500 ppm, gherkin plants sprayed 24 h before contamination, graded 12 days after contamination. As to the method: Gherkin plants (“Vert petit de Paris” variety), sown in starter cups on a 50/50 peat soil-pozzolana substrate and grown at 24° C., are treated at the Z11 cotyledon stage by spraying with the active ingredient prepared as described above. Plants, used as controls, are treated with the mixture of acetone/tween/DMSO/water not containing the active material. After 24 hours, the plants are contaminated by spraying the cotyledons with an aqueous suspension of Sphaerotheca fuliginea spores (100 000 spores per ml). The spores are collected from infected plants. […] Grading (% of efficacy) is carried out 12 days after the contamination, in comparison with the control plants.

Data set [4] deals with Uromyces appendiculatus. Briefly: In vivo preventive test on Uromyces appendiculatus (bean rust). As to conditions: preventive, bean plants, dose of 500 ppm, grading 11 days after contamination. As to the method:
Bean plants (“Saxa” variety), sown in starter cups on a 50/50 peat soil-pozzolana substrate and grown at 24° C., are treated at the 2-leaf stage (9 cm height) by spraying with the active ingredient prepared as described above. Plants, used as controls, are treated with the mixture of acetone/tween/DMSO/water not containing the active material. After 24 hours, the plants are contaminated by spraying the leaves with an aqueous suspension of Uromyces appendiculatus spores (150 000 spores per ml). The spores are collected from infected plants and are suspended in water containing 2.5 ml/1 of Tween 80 at 10%. […] Grading (% of efficacy) is carried out 11 days after the contamination, in comparison with the control plants.

Data set [5] can be described thus: logP by HPLC on reversed phase columns (EEC directive 79/831 Annex V.A8). In kind it is physicochemical. The conditions noted are these: method [a]: LC-MS at pH 2.7, 0.1% formic acid in water / acetonitrile; compounds of formula (I), Table 1.

SMILES strings stand for the structures.

With `CON=C1c2cccc(NC(=O)c3cn(C)nc3C(F)(F)F)c2CC1(C)C` (mixture of isomers) [Example 30], the Eff. % in data set [1] is 86%; in data set [2] it was 100%; in data set [3], 98%.
Turning to `Cc1nn(C)c(C(F)F)c1C(=O)Nc1cccc2c1CC(C)C2(C)C` (racemic) [Example 87], the values for the Eff. % in data set [1], in data set [2] and in data set [4] were 100%, 92% and 100%, respectively. Besides, in data set [5], the logP is 3.96[a].
Regarding `Cc1nn(C)c(C)c1C(=O)Nc1cccc2c1CC(C)(C)C2C` (stereo not shown) [Example 55], the Eff. % worked out at 100% in data set [1], 100% in data set [4] and 88% in data set [3]. In addition, in data set [5], the logP was 3.09[a].
`Cn1cc(C(=O)Nc2cccc3c2CC(O)C3)c(C(F)F)n1` (stereo not shown) [Example 1] returned an Eff. % in data set [2] of 70%.
In the case of `[2H]C1(C)Cc2cccc(NC(=O)c3cn(C)nc3C(F)F)c2C1` (stereo not shown) [Example 26], the Eff. % in data set [1] is listed as 100%; in data set [2] it was 100%; in data set [4], 100%; in data set [3], 89%. For the same molecule, the logP in data set [5] is 2.94[a].
Turning to `CCC1(CC)Cc2c(NC(=O)c3c(C)nn(C)c3F)cccc2C1C` (racemic) [Example 70], the Eff. % turned out to be 98% in data set [1], 100% in data set [4] and 98% in data set [3]. The logP in data set [5] was 4.32[a].
In the case of `CCCc1nn(C)c(F)c1C(=O)Nc1cccc2c1CC(CC)C2(C)C` (stereo not shown) [Example 48], the logP in data set [5] is 4.85[a]. Besides, the Eff. % in data set [3] turned out to be 94%.
Take `CC1Cc2c(NC(=O)c3cnn(C)c3Cl)cccc2C1(C)C` (stereo not shown) [Example 22]: the Eff. % in data set [1] is reported as 81%; in data set [2] it was 92%. In data set [5], the logP is 3.44[a].
As to `CC1c2cccc(NC(=O)c3cn(C)nc3C(F)(F)F)c2CC1(C)C` (stereo not shown) [Example 52], the Eff. % is on record as 100% in data set [1], 94% in data set [2], 100% in data set [4] and 98% in data set [3]. The logP in data set [5] was 3.72[a].
Regarding `CCC1(CC)Cc2c(NC(=O)c3cn(C)nc3C(F)(F)F)cccc2C1C` (racemic) [Example 74], the Eff. % in data set [1] was 98%; in data set [2] it was 94%; in data set [4], 100%; in data set [3] it was 98%. Also, the logP in data set [5] is 4.46[a].
Take `Cc1c(C(=O)Nc2cccc3c2CC(C)C3(C)C)cnn1C` (racemic) [Example 71]: the results for the Eff. % in data set [1], in data set [2] and in data set [4] were 81%, 97% and 79%, respectively. In addition, the logP in data set [5] was 3[a].
On to `Cc1nn(C)c(F)c1C(=O)Nc1cccc2c1CC(C)(C)C2C` (stereo not shown) [Example 60], for which the Eff. % is on record as 98% in data set [1], 100% in data set [4] and 98% in data set [3]. For the same molecule, in data set [5], the logP is 3.5[a].
In the case of `Cc1nn(C)c(C)c1C(=O)Nc1cccc2c1CC(C(C)C)C2(C)C` (stereo not shown) [Example 42], the Eff. % in data set [1], in data set [4] and in data set [3] was 100% throughout. Besides, the logP in data set [5] is 3.87[a].
Take `CC1Cc2c(NC(=O)c3cn(C)nc3I)cccc2C1(C)C` (racemic) [Example 75]: the Eff. % in data set [1] was 98%; in data set [2] it was 79%; in data set [4] it was 100%; in data set [3], 78%. Also, the logP in data set [5] was 3.64[a].
Taken in the same sequence, the figures for `Cn1cc(C(=O)Nc2cccc3c2CC(C)(C)C3)c(C(F)F)n1` [Example 45] were 98%, 97%, 100%, 100% and 3.21[a].
